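Interpolation was linear, between the two tested concentrations surrounding the appropriate level; five concentrations were tested over 48 hours in 96-well plates. Abbreviation: GI50, concentration required for 50% inhibition of growth. TGI: total growth inhibition.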
Experiments:
Test in all cases: inhibition of tumour cell growth, NCI panel, 48 h
786-0 renal = tested on: 786-0 renal
BT-549 breast = tested on: BT-549 breast
DU-145 prostate = tested on: DU-145 prostate
HCC-2998 colon = tested on: HCC-2998 colon
SF-295 CNS = tested on: SF-295 CNS
TK-10 renal = tested on: TK-10 renal
LOX IMVI melanoma = tested on: LOX IMVI melanoma
UACC-257 melanoma = tested on: UACC-257 melanoma

Compound | GI50 (786-0 renal) | TGI (786-0 renal) | GI50 (BT-549 breast) | TGI (BT-549 breast) | GI50 (DU-145 prostate) | TGI (DU-145 prostate) | GI50 (HCC-2998 colon) | TGI (HCC-2998 colon) | GI50 (SF-295 CNS) | TGI (SF-295 CNS) | GI50 (TK-10 renal) | TGI (TK-10 renal) | GI50 (LOX IMVI melanoma) | TGI (LOX IMVI melanoma) | GI50 (UACC-257 melanoma) | TGI (UACC-257 melanoma)
CCN(C(=O)N1CCN(c2cc3c(cc2F)c(=O)c(C(=O)O)cn3C2CC2)CC1)c1nc(-c2ccc(C)cc2)cs1 | 0.954 µM | 10.8 µM | 0.336 µM | 1.56 µM | 0.442 µM | 82.8 µM | 0.694 µM | > 100 µM | 0.306 µM | 3.76 µM | 2.7 µM | > 33.3 µM |  |  |  | 
O=C(/C(=C/c1ccc([N+](=O)[O-])cc1)c1ccccc1)c1ccccc1 | 3.56 µM | > 100 µM | 2.57 µM | 7.12 µM | 3.17 µM | > 100 µM | 2.38 µM | 5.24 µM | 3.56 µM | > 100 µM | 3.43 µM | > 100 µM |  |  |  | 
O=c1[nH]c2ccccc2nc1-c1c[nH]c2ccccc12 | > 100 µM | > 100 µM | > 100 µM | > 100 µM | > 100 µM | > 100 µM | > 100 µM | > 100 µM | 68.2 µM | > 100 µM | > 100 µM | > 100 µM | > 100 µM | > 100 µM | > 100 µM | > 100 µM
CN(C)CCCN1c2ccccc2CCc2ccc(Cl)cc21 | 5.5 µM | 19.2 µM | 10.4 µM | 22.2 µM | 10.8 µM | 23.1 µM | 1.8 µM | 3.75 µM | 3.51 µM | 14.8 µM | 13.3 µM | 27.2 µM | 2.31 µM | 8.16 µM | 1.84 µM | 3.41 µM
O=C(C1CCCCC1)[C@@H]1[C@]2(C(=O)NC3CCCCC32)[C@@H]2CCCN2[C@@]12C(=O)NC1CCC(Cl)CC12 (some centres not stated) | 151 µM | 319 µM | 145 µM | 286 µM | 128 µM | 259 µM | 135 µM | 293 µM | 149 µM | 299 µM | 266 µM | 448 µM | 103 µM | 253 µM | 135 µM | 288 µM
O=C(c1ccccc1)C(CN1CCOCC1)c1ccccc1 (configuration not stated) | 2.72 µM | 6.93 µM | 1.48 µM | 3.77 µM | 1.16 µM | 2.44 µM | 4.36 µM | 15.6 µM | 2.67 µM | 10.4 µM | 1.19 µM | 2.44 µM | 1.32 µM | 3.19 µM | 1.37 µM | 3.13 µM
Cc1cc(N/N=C/c2nc(-c3ccc(Br)cc3)oc2C)c2cc(Cl)ccc2n1 | > 100 µM | > 100 µM | > 100 µM | > 100 µM | > 100 µM | > 100 µM | > 100 µM | > 100 µM | > 100 µM | > 100 µM | > 100 µM | > 100 µM | > 100 µM | > 100 µM | > 100 µM | > 100 µM
COc1cc2c(cc1OCCCCOc1cc3c(cc1OC)C(=O)N1CCC[C@H]1CN3)N=C[C@@H]1CCCN1C2=O | 2.94 µM | > 100 µM | 0.357 µM | 5.75 µM | 2.46 µM | > 100 µM | 2 µM | 5.64 µM |  | 1.2 µM | 1.64 µM | 8.38 µM | 1.07 µM | > 32.5 µM | 5.64 µM | > 100 µM
O=C(/C(=C/c1ccccc1)CN1CCCCC1)c1ccccc1 | 1.79 µM | 3.64 µM | 1.92 µM | 3.85 µM | 1.52 µM | 5.78 µM | 1.68 µM | 3.11 µM | 2.42 µM | 7.08 µM | 0.662 µM | 1.74 µM | 0.364 µM | 1.5 µM | 1.25 µM | 3.35 µM
N/C(=N\N=C\c1ccc(-c2ccccc2)cc1)N[N+](=O)[O-] | 10.4 µM | > 100 µM | 17.1 µM | > 100 µM | 5.76 µM | > 100 µM |  |  | 2.61 µM | > 100 µM | > 100 µM | > 100 µM | 5.75 µM | > 100 µM | > 100 µM | > 100 µM
COc1ccc(-c2n[nH]nc2-c2cc(OC)c3c(c2OC)OCO3)cc1 | 3.07 µM | 71.9 µM | 0.544 µM | 25.9 µM | 1.61 µM | 13.6 µM | 1.7 µM | 19.3 µM | 0.658 µM | 5.67 µM | 4.85 µM | 79.8 µM | 0.746 µM | 19 µM | 2.8 µM | > 100 µM
Nc1ncnc2[nH]ncc12 | 0.623 µM | 21.2 µM | 1.98 µM | 74.9 µM | 0.358 µM | 18 µM | 0.251 µM | 4.85 µM | 0.401 µM | 6.37 µM | 0.589 µM | > 47.6 µM | 0.34 µM | > 41 µM | 0.983 µM | 14.2 µM
CC(CN1CCN(CCOCCO)CC1)CN1c2ccccc2Sc2ccc(Cl)cc21 (configuration not stated) | 4.79 µM | 18 µM | 2.45 µM | 6.67 µM | 5.05 µM | 17 µM | 1.91 µM | 3.51 µM |  |  | 2.31 µM | 6.45 µM | 1.74 µM | 3.27 µM | 1.49 µM | 3.11 µM
C=CCOC1OC(CO[Si](C)(C)C(C)(C)C)C(OCc2ccccc2)C(OCc2ccccc2)C1OCc1ccccc1 (configuration not stated) |  | 22.3 µM |  | > 100 µM |  | > 100 µM |  |  |  | 54.9 µM |  | > 100 µM |  | > 100 µM |  | > 100 µM
COc1cc2c(c(OC)c1OC)-c1ncc3cc(OC)c(OC)c(OC)c3c1C2 | 35.9 µM | > 100 µM |  |  | 26.6 µM | > 100 µM | 16.4 µM | 30.7 µM | 18.7 µM | 42.4 µM | 23.3 µM | 80.6 µM | 15.9 µM | 29.9 µM | 12.1 µM | 27.2 µM
N=C(N)c1ccc(N2CCCN(c3ccc(C(=N)N)cc3)CC2)cc1 | > 100 µM | > 100 µM |  |  | 46.7 µM | > 100 µM | > 100 µM | > 100 µM | 32.6 µM | > 100 µM | 58.2 µM | > 100 µM | 56.1 µM | > 100 µM | > 100 µM | > 100 µM
O=C1c2ccccc2-c2c1c1ccc([N+](=O)[O-])cc1c(=O)n2CCCBr | > 100 µM | > 100 µM | > 100 µM | > 100 µM | > 100 µM | > 100 µM | > 100 µM | > 100 µM |  |  |  |  | 4.18 µM | > 100 µM | > 100 µM | > 100 µM
CCN=C1C=CC(=C(c2ccc(N)cc2)c2ccc(N(CC)CC)c(C)c2)C=C1 | 0.344 µM | 1.84 µM |  |  | 0.43 µM | 2.28 µM | 0.48 µM | 1.65 µM | 0.223 µM | 0.745 µM | 0.396 µM | 10.7 µM |  |  | 0.324 µM | 1.69 µM
CCN1CCC(CCOC)(CN2c3ccccc3Sc3ccc(Cl)cc32)C1 (configuration not stated) | 1.81 µM | 3.39 µM | 1.88 µM | 3.68 µM | 1.92 µM | 3.68 µM | 1.63 µM | 3.2 µM | 1.73 µM | 3.39 µM | 2.03 µM | 3.67 µM |  |  | 1.93 µM | 3.87 µM
CNC(=O)OCc1c(COC(=O)NC)c(C)n(-c2ccc(Br)cc2)c1C |  | 27.8 µM |  |  |  | 36.2 µM |  | 32.2 µM |  | 31.9 µM |  | 51.5 µM |  | 23.9 µM |  | 32.3 µM
C=CC(=O)N(C)[C@H]1C[C@H]2OC(C)(C1OC)n1c3ccccc3c3c4c(c5c6ccccc6n2c5c31)C(=O)NC4 (some centres not stated) | 0.0872 µM | 0.69 µM | 0.0963 µM | 0.553 µM | 0.124 µM | 18.7 µM | 0.575 µM | 1.46 µM | 0.0815 µM | 0.827 µM |  |  | 0.0823 µM | 0.67 µM | 0.216 µM | 1.39 µM
Cc1ccc(-c2cc(-c3ccc(C)cc3)nc(NCCNc3ccnc4cc(Cl)ccc34)n2)cc1 | 1.79 µM | 3.67 µM |  |  | 1.81 µM | 3.31 µM | 1.76 µM | 3.28 µM | 1.8 µM | 3.49 µM | 1.78 µM | 3.47 µM | 1.83 µM | 3.71 µM | 1.98 µM | 4.07 µM
Cn1c2c(cc(S(=O)(=O)c3ccccc3)c1=O)CCc1c-2cnn1-c1ccc(Cl)cc1 | 2.49 µM | 5.51 µM | 3.03 µM | 7.82 µM |  |  | 7.31 µM | > 100 µM | 2.09 µM | 5.04 µM | 2.26 µM | 5.17 µM | 4.09 µM | 17.3 µM |  | 
COc1ccc2cc(-c3ccoc(=O)c3-c3cc(OC)c(OC)c(OC)c3)ccc2c1 | 0.201 µM | > 100 µM | 0.232 µM | > 100 µM | 0.188 µM | > 100 µM | 0.0744 µM | 0.426 µM | 0.045 µM |  |  | > 100 µM | 1.15 µM | > 100 µM |  | 
COc1ccc(C(OCC2OC(n3ccc(NC(=O)c4ccccc4)nc3=O)C(O)C2O)(c2ccccc2)c2ccccc2)cc1 (configuration not stated) |  | 3.69 µM |  |  |  | 10.3 µM |  | 12.6 µM |  | 3.49 µM |  |  |  |  |  | 21.1 µM

From PubChem BioAssay (NCI)
